Where “and” joins values, the source holds several entries; their conditions need not be identical. Identical values can stand only once. Toxic doses and inconclusive results are not listed. No stated cut-off is given here; in the data, active means T/C of 150% or more; inactive means T/C below 125%.
Tested on: L1210 leukemia ip in BDF1 mice, survival T/C
Assay: NCI In Vivo Anticancer Drug Screen. Data for tumor model L1210 Leukemia (intraperitoneal) in B6D2F1 (BDF1) mice
Settings: endpoint: mean survival time, higher = longer survival
Method in brief: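 Tumor cells were implanted, animals were treated, and survival was followed. The result divides the treated measurement by the vehicle-control measurement.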

[1] = dose: 50.0 mg/kg/injection, schedule: Q01DX001 (ip), vehicle: carboxymethylcellulose (CMC)
[2] = dose: 100.0 mg/kg/injection, schedule: Q04DX003 (ip), vehicle: saline
[3] = dose: 200.0 mg/kg/injection, schedule: Q04DX003 (ip), vehicle: saline
[4] = dose: 400.0 mg/kg/injection, schedule: Q04DX003 (ip), vehicle: saline
[5] = dose: 100.0 mg/kg/injection, schedule: Q04DX002 (ip), vehicle: saline with Tween-80
[6] = dose: 100.0 mg/kg/injection, schedule: Q01DX001 (ip), vehicle: saline
[7] = dose: 100.0 mg/kg/injection, schedule: Q01DX001 (ip), vehicle: carboxymethylcellulose (CMC)
[8] = dose: 200.0 mg/kg/injection, schedule: Q01DX001 (ip), vehicle: carboxymethylcellulose (CMC)
[9] = dose: 400.0 mg/kg/injection, schedule: Q01DX001 (ip), vehicle: carboxymethylcellulose (CMC)

Measured: T/C

O=C1C(Cl)=C(N/N=c2/[nH][nH]/c(=N/NC3=C(Cl)C(=O)c4ccccc4C3=O)c3ccccc23)C(=O)c2ccccc21
inactive: dose: 25.0 mg/kg/injection, schedule: Q01DX001 (ip), vehicle: carboxymethylcellulose (CMC) 104 % of control | [1] 101 % of control

CCCCCCCCC1SC1CCCCCCCC(=O)N(C)c1ccccc1 (stereo not drawn)
inactive: [2] 97 % of control | [3] 99 % of control | [4] 94 % of control

O=C(O)C1CC2C3(Cl)C(Cl)=C(Cl)C(Cl)C2(CC1c1c2ccc(=O)c(O)c-2oc2c(O)c(O)ccc12)C3(Cl)Cl (stereo not drawn)
inactive: dose: 100.0 mg/kg/injection, schedule: Q04DX003 (ip), vehicle: Klucel (hydroxypropylcellulose) (HPC) 96 % of control | dose: 200.0 mg/kg/injection, schedule: Q04DX003 (ip), vehicle: Klucel (hydroxypropylcellulose) (HPC) 94 % of control | dose: 400.0 mg/kg/injection, schedule: Q04DX003 (ip), vehicle: Klucel (hydroxypropylcellulose) (HPC) 96 % of control

C=CCNC(=O)c1ccccc1
inactive: dose: 25.0 mg/kg/injection, schedule: Q04DX002 (ip), vehicle: saline with Tween-80 97 % of control | dose: 50.0 mg/kg/injection, schedule: Q04DX002 (ip), vehicle: saline with Tween-80 93 % of control | [5] 111 % of control and 91 % of control

N#CCC(C#N)C1C=CCC1 (stereo not drawn)
inactive: dose: 5.0 mg/kg/injection, schedule: Q01DX001 (ip), vehicle: saline 97 % of control | dose: 10.0 mg/kg/injection, schedule: Q01DX001 (ip), vehicle: saline 97 % of control | dose: 12.5 mg/kg/injection, schedule: Q04DX003 (ip), vehicle: saline with Tween-80 98 % of control

NC(=S)N/N=C1\CC(c2ccccc2)Oc2ccccc21 (stereo not drawn)
inactive: [6] 88 % of control

Cc1ccc(S(=O)(=O)Oc2ccc3ccccc3c2)cc1
inactive: dose: 100.0 mg/kg/injection, schedule: Q01DX009 (ip), vehicle: saline with Tween-80 88 % of control | dose: 100.0 mg/kg/injection, schedule: Q04DX003 (ip), vehicle: saline with Tween-80 98 % of control | dose: 200.0 mg/kg/injection, schedule: Q04DX003 (ip), vehicle: saline with Tween-80 86 % of control | dose: 400.0 mg/kg/injection, schedule: Q04DX003 (ip), vehicle: saline with Tween-80 86 % of control

CN(C)c1ccc(C(Nc2ccccc2)C(Nc2ccccc2)c2ccc(N(C)C)cc2)cc1 (stereo not drawn)
inactive: dose: 100.0 mg/kg/injection, schedule: Q01DX001 (ip), vehicle: other 102 % of control | dose: 200.0 mg/kg/injection, schedule: Q01DX001 (ip), vehicle: other 87 % of control | dose: 400.0 mg/kg/injection, schedule: Q01DX001 (ip), vehicle: other 89 % of control

COc1cccc2c1C(=O)c1c(OC)c(CO)cc(OC)c1C2=O
inactive: dose: 12.5 mg/kg/injection, schedule: Q01DX009 (ip), vehicle: water 93 % of control | dose: 25.0 mg/kg/injection, schedule: Q01DX009 (ip), vehicle: water 91 % of control | dose: 50.0 mg/kg/injection, schedule: Q01DX009 (ip), vehicle: water 87 % of control | dose: 100.0 mg/kg/injection, schedule: Q01DX009 (ip), vehicle: water 97 % of control | dose: 200.0 mg/kg/injection, schedule: Q01DX009 (ip), vehicle: water 95 % of control

COc1c2c([n+](C)c3c(OC)cccc13)OC(C(C)C)C2 (stereo not drawn)
inactive: dose: 0.5 mg/kg/injection, schedule: Q01DX009 (ip), vehicle: acetone 100 % of control | dose: 0.75 mg/kg/injection, schedule: Q01DX009 (ip), vehicle: saline 103 % of control | dose: 1.0 mg/kg/injection, schedule: Q01DX001 (ip), vehicle: saline 96 % of control | dose: 1.0 mg/kg/injection, schedule: Q01DX009 (ip), vehicle: acetone 120 % of control | dose: 1.0 mg/kg/injection, schedule: Q04DX003 (ip), vehicle: Klucel (hydroxypropylcellulose) (HPC) 97 % of control | dose: 1.0 mg/kg/injection, schedule: Q04DX003 (ip), vehicle: acetone 108 % of control | dose: 1.5 mg/kg/injection, schedule: Q01DX009 (ip), vehicle: saline 92 % of control | dose: 2.0 mg/kg/injection, schedule: Q01DX001 (ip), vehicle: saline 96 % of control | dose: 2.0 mg/kg/injection, schedule: Q04DX003 (ip), vehicle: Klucel (hydroxypropylcellulose) (HPC) 105 % of control | dose: 2.0 mg/kg/injection, schedule: Q04DX003 (ip), vehicle: acetone 119 % of control | dose: 4.0 mg/kg/injection, schedule: Q01DX001 (ip), vehicle: saline 98 % of control

O=C(CC(C(=O)c1ccccc1)N1CCN(Cc2ccccc2)CC1)c1ccccc1 (stereo not drawn)
inactive: [1] 92 % of control | [7] 94 % of control | [8] 92 % of control | [9] 97 % of control

CC(=O)Nc1cccc(OCCOc2cccc([N+](=O)[O-])c2)c1
inactive: [6] 100 % of control | dose: 200.0 mg/kg/injection, schedule: Q01DX001 (ip), vehicle: saline 101 % of control | dose: 400.0 mg/kg/injection, schedule: Q01DX001 (ip), vehicle: saline 101 % of control

COC(=O)C(=O)CC(=O)c1ccc(C)cc1
inactive: dose: 100.0 mg/kg/injection, schedule: Q04DX002 (ip), vehicle: Klucel (hydroxypropylcellulose) (HPC) 103 % of control | dose: 200.0 mg/kg/injection, schedule: Q04DX002 (ip), vehicle: Klucel (hydroxypropylcellulose) (HPC) 95 % of control | dose: 400.0 mg/kg/injection, schedule: Q04DX002 (ip), vehicle: Klucel (hydroxypropylcellulose) (HPC) 106 % of control

COc1ccc(NC(=O)Oc2ccccn2)cc1
inactive: dose: 25.0 mg/kg/injection, schedule: Q01DX009 (ip), vehicle: carboxymethylcellulose (CMC) 92 % of control and 100 % of control | dose: 50.0 mg/kg/injection, schedule: Q01DX009 (ip), vehicle: carboxymethylcellulose (CMC) 93 % of control and 103 % of control | [7] 97 % of control | dose: 100.0 mg/kg/injection, schedule: Q04DX003 (ip), vehicle: carboxymethylcellulose (CMC) 93 % of control and 106 % of control | [8] 101 % of control | dose: 200.0 mg/kg/injection, schedule: Q04DX003 (ip), vehicle: carboxymethylcellulose (CMC) 97 % of control and 113 % of control | [9] 113 % of control | dose: 400.0 mg/kg/injection, schedule: Q04DX003 (ip), vehicle: carboxymethylcellulose (CMC) 97 % of control and 108 % of control

CC#CCCC(=O)OCCCCC
inactive: [5] 97 % of control | dose: 200.0 mg/kg/injection, schedule: Q04DX002 (ip), vehicle: saline with Tween-80 102 % of control

COC(=O)C(C)CC(C)(C=O)OC (stereo not drawn)
inactive: [2] 93 % of control | [3] 89 % of control | [4] 89 % of control

COC(=O)C1CC2OC2C(C)C1C(=O)OC (stereo not drawn)
inactive: dose: 100.0 mg/kg/injection, schedule: Q01DX009 (ip), vehicle: Klucel (hydroxypropylcellulose) (HPC) 95 % of control | dose: 200.0 mg/kg/injection, schedule: Q01DX009 (ip), vehicle: Klucel (hydroxypropylcellulose) (HPC) 103 % of control | dose: 400.0 mg/kg/injection, schedule: Q01DX009 (ip), vehicle: Klucel (hydroxypropylcellulose) (HPC) 105 % of control

O=C1CCC(CCl)O1 (stereo not drawn)
inactive: dose: 75.0 mg/kg/injection, schedule: Q01DX009 (ip), vehicle: other 100 % of control | dose: 100.0 mg/kg/injection, schedule: Q04DX002 (ip), vehicle: other 93 % of control | dose: 150.0 mg/kg/injection, schedule: Q01DX009 (ip), vehicle: other 104 % of control | dose: 200.0 mg/kg/injection, schedule: Q04DX002 (ip), vehicle: other 93 % of control | dose: 300.0 mg/kg/injection, schedule: Q01DX009 (ip), vehicle: other 96 % of control | dose: 400.0 mg/kg/injection, schedule: Q04DX002 (ip), vehicle: other 110 % of control

Cn1c2ccccc2c(=O)c2cc(N)ccc21
inactive: [2] 95 % of control | [3] 98 % of control | [4] 104 % of control

Source: PubChem BioAssay AID248 (DTP/NCI, 2004)
